Laboratory results reported in patent publication US20110071094A1, “(D)-ALLOSE INDUCING PROGRAMMED CELL DEATH IN HORMONE REFRACTORY PROSTATE CANCER LINES” (INDUSTRY-ACADEMIC COOPERATION FOUDATION, GYEONGSANG …, priority 2008, published 2011).

Legend:
Assay type in all cases: cell-based, human
Bcl-2/Bax ratio = experiment: Calculation of Bcl-2/Bax ratio from densitometry of protein bands; details: 72 h, 0.896 at 0 Mm
Procedure: After 0, 20 and 40 mM of D-allose treatments for 72 h, DU145 cell line (1×10^6 cells in triplicate culture plates) was harvested into cell lysis buffer (Cell Signaling, Danvers, Mass., USA) supplemented with 1 mM PMSF. The cells were then sonicated, centrifuged and protein concentration was measured by Bradford assay with the Bio-Rad protein assay solution using bovine serum albumin (BSA) as standard. Proteins (30 μg) were separated on a 12.5% SDS-PAGE under reducing conditions and transferred onto a PVDF membrane (Santa Cruz Biotechnology, Santa Cruz, Calif., USA). Prestained protein marker, broad range: 6-175 kDa (New England Biolabs Inc., Ipswich, Mass., USA) run in parallel for detection of the molecular weights of the proteins. […] Membrane was probed with a goat derived horseradish peroxidase-conjugated anti-rabbit IgG (1:1000; Santa Cruz Biotechnology, Santa Cruz, Calif., USA), and proteins were detected by the enhanced chemiluminescence (ECL) detection system according to the vendor's protocol (Amersham Biosciences, Piscataway, N.J., USA) followed by X-ray exposure. […] Bcl-2/bax ratios of D-allose treated groups were calculated on the basis of the densitometric analysis of the corresponding protein bands and compared the values with that of the untreated control.

DU145 cell line [1] = experiment: Cell cycle analysis, PI staining, flow cytometry; details: for cells in G0-G1 phase: 48 h, untreated control 31.9%
Procedure: DU145 cell line (1×10^6 cells in triplicate culture plates) was treated with D-allose (0, 20 and 40 mM) for 48 and 72 h. The cells were treated with trypsin and harvested with PBS, centrifuged and resuspended the pellet in cold PBS-methanol mixture (1:9) for 1 h at 4° C. The cells were centrifuged, pellet washed and resuspended with PBS again, and incubated with RNAse (20 mg/ml in PBS) for 30 min at 37° C. The cells were chilled over ice and stained with PI (1 mg/ml in PBS) for 1 h and analyzed by flow cytometry using CellQuest software, version 3.0, performed on a FACSCalibur, fluorescence (FL2-A) detector equipped with 488 nm argon laser light source and 623 nm band pass filter (Becton Dickinson, San Jose, Calif., USA). Total 10,000 cells were acquired for analysis by CellQuest software and the quantification of FACS data was performed using ModFit LT software, version 2.0, (Becton Dickinson, San Jose, Calif., USA). The cell population was gated according to the characteristics side scatter and forward scatter intensities of FACS. The number of all gated living cells was taken as 100%, from which the percentage of cells in G0-G1, S and G2-M phase was calculated and presented in the right side of the histogram.

caspase 3 = experiment: Western blot analysis of caspase 3 protein in DU145; details: DU145, 0, 20 and 40 mM, 72 h
Procedure: After 0, 20 and 40 mM of D-allose treatments for 72 h, DU145 cell line (1×10^6 cells in triplicate culture plates) was harvested into cell lysis buffer (Cell Signaling, Danvers, Mass., USA) supplemented with 1 mM PMSF. The cells were then sonicated, centrifuged and protein concentration was measured by Bradford assay with the Bio-Rad protein assay solution using bovine serum albumin (BSA) as standard. Proteins (30 μg) were separated on a 12.5% SDS-PAGE under reducing conditions and transferred onto a PVDF membrane (Santa Cruz Biotechnology, Santa Cruz, Calif., USA). Prestained protein marker, broad range: 6-175 kDa (New England Biolabs Inc., Ipswich, Mass., USA) run in parallel for detection of the molecular weights of the proteins. Membrane was blocked with 5% (w/v) skimmed milk in order to reduce non-specific binding and immunoblotting was performed using rabbit derived anti-Bcl-2, anti-Bax, anti-Caspase 3 and anti-PARP antibodies (1:500; Santa Cruz Biotechnology, Santa Cruz, Calif., USA). […] Membrane was probed with a goat derived horseradish peroxidase-conjugated anti-rabbit IgG (1:1000; Santa Cruz Biotechnology, Santa Cruz, Calif., USA), and proteins were detected by the enhanced chemiluminescence (ECL) detection system according to the vendor's protocol (Amersham Biosciences, Piscataway, N.J., USA) followed by X-ray exposure. […]

PrEC cell line = experiment: Apoptotic indices by DAPI staining, confocal microscopy; details: PrEC, 24, 48 and 72 h
Procedure: (§1) The Annexin-V-FLUOS Staining Kit (Roche Diagnostics GmbH, Mannheim, Germany) was used for the detection and quantification of the apoptotic cells. This kit uses a dual-staining protocol in which the apoptotic cells are stained with annexin-V (green fluorescence) and the necrotic cells are stained with propidium iodide (PI, red fluorescence). Briefly, DU145 cell line was grown at a density of 1×10^6 cells in triplicate culture plates and then treated with D-allose (0, 20 and 40 mM) for 48 and 72 h. The cells were treated with trypsin and harvested with PBS and processed for labeling with annexin-V and PI by the use of the kit according to the manufacturer's protocol. The fluorescence was measured by flow cytometric analysis, performed on a FACSCalibur (Becton Dickinson, San Jose, Calif., USA) using 488 nm excitation and a 515 nm band pass filter for fluorescein detection and a filter [600 nm for PI detection (FL1: Annexin-V-FLUOS; FL2: PI). Further, apoptotic indices were measured by analysis of fragmented or scattered nuclei and condensed chromosome as the stringent morphological criteria of apoptosis, detectable by confocal microscopy on cells stained with DNA-intercalating dye […] (DAPI). For this purpose, DU145 and PrEC cell lines were exposed to 0, 20 and 40 mM of D-allose for up to 72 h, stained with DAPI (1 μg/ml in methanol), mounted with Prolong Antifade reagent (Molecular Probes, Eugene, Oreg., USA), and images were acquired by use of a confocal laser scanning microscope (Fluoview FV 1000, Olympus, Japan). The numbers of apoptotic nuclei per 100 cells were counted from the five high power fields/slide and apoptotic indices were expressed as a percentage of the untreated controls in each cell line, considering the value as 100%. DU145 cell line was also treated with 0-40 mM of D-glucose for determination of apoptotic indices as mentioned above.

DU145 cell line [2] = experiment: as above; details: DU145, 24, 48 and 72 h
Procedure: as §1

## O=C[C@H](O)[C@H](O)[C@H](O)[C@H](O)CO [D-allose]
Bcl-2/Bax ratio; DU145, 20 Mm
  Bcl-2/Bax ratio: 0.335
Bcl-2/Bax ratio; DU145, 40 Mm
  Bcl-2/Bax ratio: 0.126
DU145 cell line [1]; DU145, 20 mM
  cells in G0-G1 phase: 48.7%
DU145 cell line [1]; DU145, 40 mM
  cells in G0-G1 phase: 57.5%
DU145 cell line [1]; DU145, 48 h
  cell number in G2-M phase and S phase: concomitant decrease
Caspase 3
  cleaved caspase 3 product: concomitant increase
  full length caspase 3 protein expression: remarkable dose-dependent decrease
PrEC cell line
  programmed cell death (apoptotic indices, DAPI staining): very negligible effect
DU145 cell line [2]
  programmed cell death (apoptotic indices, DAPI staining): significant dose- and time-dependent programmed cell death
